# “Also recorded” adds a separate entry of the source.
# Key:
# Jurkat cells = assay: Proliferation of Jurkat T cell leukaemia cells; type: cell-based, human; conditions: 15 μM or 20 μM, 48 h
# Experimental: Jurkat cells were seeded at 5000 cells/well (as indicated by dotted line) and incubated in medium supplemented with water, penetratin, P7-Pen or P7-N4-Pen. Peptides were included at 15 μM (A) or 20 μM (B). Cells were incubated for 48 hours then counted. […] Results are based on 3 biological replicates, error bars show standard deviation of mean.
# SW480 (ATCC CCL-228) and Jurkat (ATCC Clone E6-1; TIB-152) cells were cultured in RPMI 1640 (Sigma-Aldrich, Schnelldorf, Germany) supplemented with 10% heat-inactivated FCS, penicillin/streptomycin (Life Technologies) and 20 mM L-Glutamine. THP-1 cells (ATCC TIB-202) were cultured in RPMI-1640 (high-glucose, ATCC) supplemented with 10% heat inactivated foetal calf serum (FCS), 100 nM penicillin/streptomycin and 5 μM β-mercaptoethanol (Sigma). THP-1 cells were differentiated with 60 ng/ml phorbol 12-myristate 13-acetate (PMA, Sigma) for 72 h, followed by 24 or 48 h in medium without PMA.
# The peptides were tested against the SW480 cell line in the presence and absence of LPS.
# primary human monocytes = assay: Confocal analysis of E. coli particle uptake by primary human monocytes; type: cell-based; conditions: 15 μM, level comparable with CytoD treated cells
# Experimental: (§1) Cells were pre-incubated with Pen or P7-Pen peptides, followed by addition of Alexa Fluor 488-labeled bioparticles for the times indicated (15, 30 or 45 min). Fluorescent bacteria particles were counted by spot-detection in Bitplane Imaris imaging software and used to calculate the number of particles per cell. […] Pre-incubation with 3 μM cytochalasin D (CytoD, and inhibitor of actin polymerization) inhibited uptake of E. coli to a similar extent as P7-Pen.
# (§2) THP-1 cells, THP-1^cherry cells or human PBMC were seeded in 24-well glass-bottom plates (MatTek Corporation), 125,000 cells/well. The THP-1 cells were differentiated into macrophages with 60 ng/ml PMA for 72 h and thereafter rested for 48 h, whereas the PBMC were used the day after isolation. The P7-penatratin peptide or control peptide was added to the cells 30 min before stimulation at 15 μM concentration. If used, 3 μM cytochalasin D (CytoD) was added simultaneously. […] A spot detection mode in the Bitplan Imaris software was used to define individual phagosomes and cells were counted manually. […] Fluorescence voxel intensity of TRAM^cherry at the phagosome is also presented. Statistical significance was calculated in GraphPad Prism by One-way ANOVA Kruskal-Wallis multiple comparison test. […]
# [1] = system: THP-1 WT cells and THP-1 TRAM^CHERRY; assay: Confocal analysis of bacterial bioparticle uptake by THP-1 cells; type: cell-based, human; conditions: 15 μM, 30 min pre-incubation
# Experimental: as §1, §2
# TLR2 = assay: Primary human macrophages stimulated with FSL-1: cytokine mRNA, Western blot, IRAK precipitations; type: cell-based; conditions: primary human macrophages (data not shown)
# Experimental: Primary human macrophages (PBMC derived, differentiated in media with 10% human serum and M-CSF 20 ng/ml, 7 days) were stimulated with K12 LPS (100 ng/ml), FSL-1 (100 ng/ml) or CL075 (3 μg/ml). […] (B) qPCR for mRNA expression of IFNβ, IL-6, TNF and IL-1β, average for three biological replicates, error bars ±SD.
# Primary human macrophages (7 days) were pre-treated with Pen or P7-Pen (15 μM) for 30 min before addition of LPS (100 ng/ml), FSL-1 (100 ng/ml) or CL075 (3 μg/ml). A: Protein expression in lysates for input control. B,C: Precipitations were performed using sheep anti-IRAK4 (B) or anti-IRAK1 (C) polyclonal antibodies covalently bound to magnetic beads.
# The effect of P7-Pen on TLR2-mediated pro-inflammatory cytokine expression was investigated.
substance,measurement,setting,value
Ac-ITVYASVTLTGRQIKIWFQNRRMKWKK-NH2 [Peptide P7-Pen],effect on proliferation of Jurkat cells,Jurkat cells,possible anti-proliferative effect; also recorded: clear anti-proliferative effect
same,uptake of E. coli particles,primary human monocytes,inhibited
same,uptake of S. aureus bioparticles,[1]; THP-1 TRAM^CHERRY,inhibited
same,uptake of E. coli particles,[1]; THP-1 WT and THP-1 TRAM^CHERRY,inhibited
same,expression of pro-inflammatory cytokines induced by TLR2/6 agonist FSL-1,TLR2,no effect
